Experimental data taken from patent US20230000808A1, “COMPOSITIONS AND METHODS EXCLUDING OR WITH REDUCED GLUTAMINE FOR THE TREATMENT OF HEMOGLOBINOPATHIES AND THALASSEMIAS” (AXCELLA HEALTH INC., priority 2019, published 2023).

What was measured:
ICAM-1 = ICAM-1 cell integrated intensity in HLMVEC treated with TNF-α (immunofluorescence); assay type: cell-based, human; conditions: HLMVEC + 0.5 ng/mL TNF-α, 24 h; amino acids 20x HMDB, Nac/Cit/Car 5 mM as bracketed
Description: (§1) Primary Human Lung Microvascular Endothelial Cells (HLMVEC; Lonza) were seeded at 6,000 cells per well in Endothelial Cell Growth Basal Medium-2 (Lonza) supplemented with Fetal Bovine Serum (FBS; Lonza), human EGF (Lonza), human VEGF (Lonza), R3-Insulin-like Growth Factor-1 (Lonza), ascorbic acid (Lonza), hydrocortisone (Lonza), human FGF-beta (Lonza), and gentamicin/amphotericin-b (Lonza) in a 96-well plate (Thermo Fisher). The cells were incubated for 45 minutes at room temperature, then incubated overnight at 37° C./5% CO2.
(§2) Following overnight incubation, cell were washed once with 150 μL of Dulbecco's phosphate buffered saline (DPBS; Gibco), and then treated with Endothelial Basal Medium MCB-131 (amino acid, glucose, sodium pyruvate, and phenol red free; US Biologicals) containing a defined custom amino acid concentration based on physiological concentrations in blood of patients with SCD (thus recapitulating observed metabolic imbalances such as the depletion of certain essential amino acids including arginine and aspartate and enrichment of certain non-essential amino acids including glutamate and asparagine), dialyzed FBS (Hyclone), human EGF (Lonza), human VEGF (Lonza), R3-Insulin-like Growth Factor-1 (Lonza), ascorbic acid (Lonza), hydrocortisone (Lonza), human FGF-beta (Lonza), and gentamicin/amphotericin-b (Lonza), glucose, 10 mM HEPES, sodium pyruvate, and sodium bicarbonate supplemented with one of the following: • a. PBS (vehicle control), • b. 0.5 ng/mL Tumor Necrosis Factor alpha (TNFα) and PBS, or; • c. 0.5 ng/mL TNF-α and amino acid treatments at 20× mean physiological concentrations in plasma based on values published in the Human Metabolome Database (HMDB) in PBS.
(§3) After 24 hours of treatment, cells were washed once with 150 μL of DPBS (Gibco), then fixed with 4% paraformaldehyde. Following fixation, cells were stained with anti-ICAM-1 [MEM-111] (mouse IgG2a anti-human; abcam) and anti-VCAM1 [1.4C3] (mouse IgG1, K anti-human; abcam) primary antibodies at 1000×, and 100× dilutions respectively. Cells were then stained with Goat anti-Mouse IgG2a Cross-Adsorbed Secondary Antibody, Alexa Fluor 594 (Invitrogen) and Goat anti-Mouse IgG1 Cross-Adsorbed Secondary Antibody, Alexa Fluor 647 (Invitrogen) secondary antibodies. Nuclei were stained with Hoechst 3342 (Life Technologies).
(§4) Antibody binding was detected by fluorescence microscopy using a high content imager (Molecular Devices). Images were analyzed using MetaXpress 6 software to determine the integrated intensity per cell for each wavelength corresponding to ICAM-1 or VCAM-1.

VCAM-1 = VCAM-1 cell integrated intensity in HLMVEC treated with TNF-α (immunofluorescence); assay type: cell-based, human; conditions: HLMVEC + 0.5 ng/mL TNF-α, 24 h; amino acids 20x HMDB, Nac/Cit/Car 5 mM as bracketed
Description: as §1, §2, §3, §4

IL-6 [1] = assay: Secreted IL-6 in HLMVEC treated with TNF-α (FirePlex); assay type: cell-based, human; conditions: HLMVEC + 0.5 ng/mL TNF-α, 24 h; amino acids 20x HMDB, Nac/Cit/Car 5 mM as bracketed
Description: as §1, §2
Supernatants were analyzed for IL-6 concentrations using a Human Cytokines FirePlex-HT Panel 1 kit (abcam) according to the manufacturer-supplied instructions. Particles were imaged on a high content imager (Molecular Devices), and results were interpolated from a standard curve with FirePlex Analysis Workbench Software (abcam) according manufacturer's recommendations.

HLMVEC = assay: META-rank score, composite of VCAM1, ICAM1 and IL6 in the HLMVEC model; assay type: cell-based, human; conditions: HLMVEC + TNF-α; lower score = more optimal; 20x HMDB / 5 mM
Description: The ability of single amino acids and combinations to simultaneously impact these phenotypes was measured by a META-rank score (Tables 17 and 18). META-rank score is a composite measure that considers the optimal impact on all 3 phenotypes (e.g. decrease VCAM1, ICAM1, and IL6) in the HLMVEC model.

IL-6 [2] = assay: LPS-induced IL-6 secretion in primary human monocyte-derived macrophages (ELISA); assay type: cell-based; parameters: Donor 1 IL-6 Measurements Mean: unit not given here; conditions: LPS, baseline subtracted
Description: (§5) Primary human PMBC derived macrophages were seeded on day 0 at 3.0×10^4 cells per well in 96-well microplates (ThermoFisher) in Dulbecco's Modified Eagle Medium (DMEM) (Gibco) supplemented with penicillin-streptomycin (Hyclone) and 10% heat inactivated fetal bovine serum (HI-FBS) (Atlanta Bio) and incubated overnight at 37° C., 5% CO2. On day 1, cells were washed once with 150 μl per well DPBS (Gibco) and treated with 75 μl of: • a. […] The same medium described above with one amino acid at various concentrations including complete dropout. […] On day 3, the supernatant was collected and immediately frozen in −80° C. freezer. Cells were washed once with 150 μl DPBS and viability was assessed using the WST-8 Cell Proliferation Cytotoxicity Assay (Dojindo). […] Protein levels in supernatant samples were analyzed by ELISA for IL-6 and TNFα using commercially available kits (R&D Systems) according to manufacturer-supplied protocols.

TNFα = assay: LPS-induced TNF-α secretion in primary human monocyte-derived macrophages (ELISA); assay type: cell-based; conditions: LPS, baseline subtracted
Description: as §5

N[C@@H](Cc1c[nH]cn1)C(=O)O [His]
ICAM-1 Cell Integrated Intensity Median (ICAM-1): 0.084 | VCAM-1 Cell Integrated Intensity Median (VCAM-1): 0.109 | Secreted IL6 Median (IL-6 [1]): −0.198 | Meta-Rank (Table 18) (HLMVEC): 18.5 | Metarank (Table 17) (HLMVEC): 22

N=C(N)NCCC[C@H](N)C(=O)O [Arg]
ICAM-1 Cell Integrated Intensity Median (ICAM-1): −0.046 | VCAM-1 Cell Integrated Intensity Median (VCAM-1): −0.001 | Secreted IL6 Median (IL-6 [1]): −0.224 | Metarank (Table 17) (HLMVEC): 19

NC(=O)CC[C@H](N)C(=O)O [Gln]
ICAM-1 Cell Integrated Intensity Median (ICAM-1): 0.237 | VCAM-1 Cell Integrated Intensity Median (VCAM-1): 0.372 | Secreted IL6 Median (IL-6 [1]): 0.043 | Meta-Rank (Table 18) (HLMVEC): 29 | Metarank (Table 17) (HLMVEC): 28

CC(C)C[C@H](N)C(=O)O [Leu]
ICAM-1 Cell Integrated Intensity Median (ICAM-1): 0.086 | VCAM-1 Cell Integrated Intensity Median (VCAM-1): 0.125 | Secreted IL6 Median (IL-6 [1]): −0.491 | Meta-Rank (Table 18) (HLMVEC): 20 | Metarank (Table 17) (HLMVEC): 7

N[C@@H](CO)C(=O)O [Ser]
ICAM-1 Cell Integrated Intensity Median (ICAM-1): 0.076 | VCAM-1 Cell Integrated Intensity Median (VCAM-1): 0.139 | Secreted IL6 Median (IL-6 [1]): −0.153 | Meta-Rank (Table 18) (HLMVEC): 19 | Metarank (Table 17) (HLMVEC): 23

CC(C)[C@H](N)C(=O)O [Valine]
Donor 1 IL-6 Measurements Mean (IL-6 [2]; Conc. 234 μM (baseline)): 0 | Donor 1 IL-6 Measurements Mean (IL-6 [2]; Conc. 4684 μM): −85.9843 | Donor 1 IL-6 Measurements Mean (IL-6 [2]; Conc. 11710 μM): −97.25 | Donor 1 IL-6 Measurements Mean (IL-6 [2]; Conc. 23420 μM): −106.268 | Donor 2 IL-6 Measurements Mean (IL-6 [2]; Conc. 234 μM (baseline)): −4.7E−15 | Donor 2 IL-6 Measurements Mean (IL-6 [2]; Conc. 4684 μM): −4.528 | Donor 2 IL-6 Measurements Mean (IL-6 [2]; Conc. 11710 μM): −1.196 | Donor 2 IL-6 Measurements Mean (IL-6 [2]; Conc. 23420 μM): 4.396 | Donor 3 IL-6 Measurements Mean (IL-6 [2]; Conc. 234 μM (baseline)): 4.26E−14 | Donor 3 IL-6 Measurements Mean (IL-6 [2]; Conc. 4684 μM): −30.0609 | Donor 3 IL-6 Measurements Mean (IL-6 [2]; Conc. 11710 μM): −43.8022 | Donor 3 IL-6 Measurements Mean (IL-6 [2]; Conc. 23420 μM): −29.2004 | TNF-α Measurements Mean (TNFα; Donor 1, Conc. 234 μM (baseline)): 0 | TNF-α Measurements Mean (TNFα; Donor 1, Conc. 4684 μM): −40.37 | TNF-α Measurements Mean (TNFα; Donor 1, Conc. 11710 μM): −41.77 | TNF-α Measurements Mean (TNFα; Donor 1, Conc. 23420 μM): −14.98 | TNF-α Measurements Mean (TNFα; Donor 2, Conc. 234 μM (baseline)): −4.7E−15 | TNF-α Measurements Mean (TNFα; Donor 2, Conc. 4684 μM): −0.00221 | TNF-α Measurements Mean (TNFα; Donor 2, Conc. 11710 μM): −0.835 | TNF-α Measurements Mean (TNFα; Donor 2, Conc. 23420 μM): −1.251 | TNF-α Measurements Mean (TNFα; Donor 3, Conc. 234 μM (baseline)): −2.4E−15 | TNF-α Measurements Mean (TNFα; Donor 3, Conc. 4684 μM): 0.126 | TNF-α Measurements Mean (TNFα; Donor 3, Conc. 11710 μM): −2.599 | TNF-α Measurements Mean (TNFα; Donor 3, Conc. 23420 μM): 3.688

N[C@@H](Cc1c[nH]c2ccccc12)C(=O)O [Trp]
ICAM-1 Cell Integrated Intensity Median (ICAM-1): 0.171 | VCAM-1 Cell Integrated Intensity Median (VCAM-1): 0.162 | Secreted IL6 Median (IL-6 [1]): −0.357 | Meta-Rank (Table 18) (HLMVEC): 24 | Metarank (Table 17) (HLMVEC): 12
